Reference: patent US20140275277A1, “PHARMACEUTICAL COMPOSITION OF S-KETAMINE HYDROCHLORIDE” (JANSSEN PHARMACEUTICA NV, priority 2013, published 2014)

Assays:
M. luteus = assay: Full AET Challenge Test (Example 2); type: cell-based, Micrococcus Luteus; conditions: after 28 days; spike 10^5-10^6 CFU/ml
Description: (§1) The formulations listed in Table 3 were additionally subjected to a Full AET challenge, with results for the individual formulations are shown in Tables 5-8, below. Additionally, Table 9 below, provides results for a Full AET challenge of a reference formulation containing 0.00 mg/mL S-ketamine hydrochloride, denatonium benzoate (to mimic the taste of the S-ketamine HCl formulation(s)), and adjusted to pH 5.21 with 1N NaOH.

C. albicans = assay: Full AET Challenge Test (Example 2); type: cell-based, Candida albicans; conditions: after 28 days; spike 10^5-10^6 CFU/ml
Description: as §1

[1] = tested on: environmental isolate Staphylococcus haemolyticus; assay: Microbial challenge test (Example 1); type: cell-based; conditions: spike 10^5-10^6 CFU/ml
Excerpt: A challenge test was initiated to investigate whether the formulation could prevent microorganisms from proliferating. The challenge test consisted of challenging the formulation with a prescribed inoculum of microorganisms. The inoculated formulation was then stored at room temperature and at specified time intervals a sample was withdrawn to count the microorganisms in the sample.

P. aeruginosa = assay: Full AET Challenge Test (Example 2); type: cell-based, Pseudomonas aeruginosa; conditions: after 28 days; spike 10^5-10^6 CFU/ml
Description: as §1

A. brasiliensis = assay: Full AET Challenge Test (Example 2); type: cell-based, Aspergillus brasiliensis; conditions: after 28 days of incubation at room temperature; spike 10^5-10^6 CFU/ml
Description: as §1

E. coli = assay: Full AET Challenge Test (Example 2); type: cell-based, Escherichia coli; conditions: after 28 days; spike 10^5-10^6 CFU/ml
Description: as §1

S. aureus = assay: Full AET Challenge Test (Example 2); type: cell-based, Staphylococcus aureus; conditions: after 28 days; spike 10^5-10^6 CFU/ml
Description: as §1

CN[C@]1(c2ccccc2Cl)CCCCC1=O.Cl [S-ketamine hydrochloride, (S)-2-(2-chlorophenyl)-2-(methylamino)cyclohexanone hydrochloride]
Effect on the original spike of Micrococcus Luteus, in words (M. luteus): strong antimicrobial properties | Effect on the original spike of Candida albicans, in words (C. albicans): strong antimicrobial properties | Effect on the original spike of Staphylococcus haemolyticus, in words [1]: strong antimicrobial properties | Effect on the original spike of Pseudomonas aeruginosa, in words (P. aeruginosa): strong antimicrobial properties | Effect on the original spike of Aspergillus brasiliensis, in words (A. brasiliensis): some inhibitory activity | Effect on the original spike of Escherichia coli, in words (E. coli): strong antimicrobial properties | Effect on the original spike of Staphylococcus aureus, in words (S. aureus): strong antimicrobial properties
